Results from BigSolDB 2.1.

C1N2CN3CN1CN(C2)C3
Settings	solubility (mole fraction)
in acetic acid, 304.52 K	0.245
in acetic acid, 310.83 K	0.245
in acetic acid, 317.35 K	0.246
in acetic acid, 321.91 K	0.249
in acetic acid, 327.65 K	0.25
in acetic acid, 332.65 K	0.251
in acetic acid, 337.15 K	0.256
in ethanol, 288.19 K	0.0085
in ethanol, 293.49 K	0.0096
in ethanol, 298.43 K	0.0107
in ethanol, 303.4 K	0.012
in ethanol, 312.91 K	0.0148
in methanol, 299.91 K	0.0234
in methanol, 304.45 K	0.0251
in methanol, 307.85 K	0.0264
in methanol, 311.9 K	0.028
in methanol, 315.95 K	0.0293
in methanol, 319.63 K	0.0304
in methanol, 323.65 K	0.032
in methanol, 326.25 K	0.0335
in methanol, 330.85 K	0.0353
in water, 303.21 K	0.098
in water, 307.4 K	0.0959
in water, 312.18 K	0.0948
in water, 317.05 K	0.0931
in water, 321.86 K	0.0914
in water, 326.15 K	0.0894
in water, 330.45 K	0.0891
in water, 335.42 K	0.0895
in water, 340.35 K	0.0914
